In patent publication US12157741B2, “Macrocyclic inhibitors of DYRK1A” (DANA-FARBER CANCER INSTITUTE, INC., priority 2018, dated 2024):
Where two headings read alike, the source gives them in different places.

Legend:
Assay type in all cases: binding
various enzymes [1] = target: various enzymes (Homo sapiens, UniProt O15146); conditions: compound 1 uM
Description: (§1) Ambit profiling was conducted in accordance with the manufacturer's instructions.

various enzymes [2] = target: various enzymes (Homo sapiens, UniProt O94804); conditions: compound 1 uM
Description: as §1

various enzymes [3] = target: various enzymes (Homo sapiens, UniProt P06213); conditions: compound 1 uM
Description: as §1

various enzymes [4] = target: various enzymes (Homo sapiens, UniProt P07333); conditions: compound 1 uM
Description: as §1

various enzymes [5] = target: various enzymes (Homo sapiens, UniProt P07948); conditions: compound 1 uM
Description: as §1

various enzymes [6] = target: various enzymes (Homo sapiens, UniProt P08581, Y1235D)
Description: as §1

various enzymes [7] = target: various enzymes (Homo sapiens, UniProt P10721, A829P)
Description: as §1

various enzymes [8] = target: various enzymes (Homo sapiens, UniProt P22607, G697C)
Description: as §1

various enzymes [9] = target: various enzymes (Homo sapiens, UniProt P22694); conditions: compound 1 uM
Description: as §1

various enzymes [10] = target: T1, various enzymes (Homo sapiens, UniProt P36888, F691L, form not given)
T1 construct: other: FLT3(ITD, F691L); 1 uM; other: compound 1 uM
Description: as §1

various enzymes [11] = target: various enzymes (Homo sapiens, UniProt P41240); conditions: compound 1 uM
Description: as §1

various enzymes [12] = target: various enzymes (Homo sapiens, UniProt P49760); conditions: compound 1 uM
Description: as §1

various enzymes [13] = target: various enzymes (Homo sapiens, UniProt Q13153); conditions: compound 1 uM
Description: as §1

various enzymes [14] = target: various enzymes (Homo sapiens, UniProt Q16288); conditions: compound 1 uM
Description: as §1

various enzymes [15] = target: various enzymes (Homo sapiens, UniProt Q6XUX3); conditions: compound 1 uM
Description: as §1

various enzymes [16] = target: T2, various enzymes (Homo sapiens, UniProt Q99640); conditions: compound 1 uM
T2 sequence (Q99640 1-499): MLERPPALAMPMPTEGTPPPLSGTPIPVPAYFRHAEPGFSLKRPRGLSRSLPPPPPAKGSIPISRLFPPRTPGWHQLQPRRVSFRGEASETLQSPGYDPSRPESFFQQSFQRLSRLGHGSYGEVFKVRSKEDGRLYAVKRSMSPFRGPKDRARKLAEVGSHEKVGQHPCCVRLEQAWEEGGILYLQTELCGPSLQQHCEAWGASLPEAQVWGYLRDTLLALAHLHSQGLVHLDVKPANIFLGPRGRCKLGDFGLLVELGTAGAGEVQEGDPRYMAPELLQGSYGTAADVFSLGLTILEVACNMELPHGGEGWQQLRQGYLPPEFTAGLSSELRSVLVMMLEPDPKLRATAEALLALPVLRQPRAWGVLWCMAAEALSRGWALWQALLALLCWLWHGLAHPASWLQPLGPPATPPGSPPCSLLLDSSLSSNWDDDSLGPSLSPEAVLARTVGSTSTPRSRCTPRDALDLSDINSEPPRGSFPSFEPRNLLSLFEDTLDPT
Description: as §1

various enzymes [17] = target: T3, various enzymes (Homo sapiens, UniProt Q9NRM7); conditions: compound 1 uM
T3 sequence (Q9NRM7 1-1088): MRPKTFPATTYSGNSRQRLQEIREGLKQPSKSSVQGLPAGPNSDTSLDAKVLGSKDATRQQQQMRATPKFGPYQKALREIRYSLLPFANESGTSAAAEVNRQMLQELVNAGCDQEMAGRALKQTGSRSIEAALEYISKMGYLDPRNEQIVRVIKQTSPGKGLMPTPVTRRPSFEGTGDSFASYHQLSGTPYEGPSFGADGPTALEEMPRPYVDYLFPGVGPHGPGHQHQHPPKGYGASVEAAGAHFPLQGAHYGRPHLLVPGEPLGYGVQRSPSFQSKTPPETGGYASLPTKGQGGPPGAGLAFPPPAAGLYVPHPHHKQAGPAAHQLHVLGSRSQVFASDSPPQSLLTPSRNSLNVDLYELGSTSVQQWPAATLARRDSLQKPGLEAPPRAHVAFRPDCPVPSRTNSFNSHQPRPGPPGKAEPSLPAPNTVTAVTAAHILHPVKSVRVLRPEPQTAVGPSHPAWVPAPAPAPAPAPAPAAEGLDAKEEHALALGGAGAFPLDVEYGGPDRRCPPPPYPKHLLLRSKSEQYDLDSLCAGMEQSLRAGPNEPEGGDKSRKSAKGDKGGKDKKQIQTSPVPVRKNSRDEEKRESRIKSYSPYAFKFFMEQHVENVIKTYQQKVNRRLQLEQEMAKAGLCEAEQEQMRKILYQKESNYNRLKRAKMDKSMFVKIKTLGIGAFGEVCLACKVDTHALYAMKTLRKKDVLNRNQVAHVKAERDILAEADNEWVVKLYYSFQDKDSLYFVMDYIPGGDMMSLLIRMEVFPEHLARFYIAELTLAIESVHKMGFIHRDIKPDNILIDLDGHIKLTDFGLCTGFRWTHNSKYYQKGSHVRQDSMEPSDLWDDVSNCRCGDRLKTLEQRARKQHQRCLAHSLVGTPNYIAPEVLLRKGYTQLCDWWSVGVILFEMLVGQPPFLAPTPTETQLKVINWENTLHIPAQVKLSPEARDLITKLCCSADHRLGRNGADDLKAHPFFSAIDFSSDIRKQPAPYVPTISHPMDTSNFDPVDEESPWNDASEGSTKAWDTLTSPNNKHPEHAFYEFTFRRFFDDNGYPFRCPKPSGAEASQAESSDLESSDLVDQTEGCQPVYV
Description: as §1

various enzymes [18] = target: various enzymes (Homo sapiens, UniProt Q9UBE8); conditions: compound 1 uM
Description: as §1

various enzymes [19] = target: various enzymes (Homo sapiens, UniProt Q9UBF8); conditions: compound 1 uM
Description: as §1

various enzymes [20] = target: various enzymes (Homo sapiens, UniProt Q9UEW8); conditions: compound 1 uM
Description: as §1

various enzymes [21] = target: various enzymes (Homo sapiens, UniProt Q9UM73); conditions: compound 1 uM
Description: as §1

various enzymes [22] = target: various enzymes (Homo sapiens, UniProt Q9UQ88); conditions: compound 1 uM
Description: as §1

Sequence of various enzymes (Homo sapiens, UniProt P07333) (P07333 20-972): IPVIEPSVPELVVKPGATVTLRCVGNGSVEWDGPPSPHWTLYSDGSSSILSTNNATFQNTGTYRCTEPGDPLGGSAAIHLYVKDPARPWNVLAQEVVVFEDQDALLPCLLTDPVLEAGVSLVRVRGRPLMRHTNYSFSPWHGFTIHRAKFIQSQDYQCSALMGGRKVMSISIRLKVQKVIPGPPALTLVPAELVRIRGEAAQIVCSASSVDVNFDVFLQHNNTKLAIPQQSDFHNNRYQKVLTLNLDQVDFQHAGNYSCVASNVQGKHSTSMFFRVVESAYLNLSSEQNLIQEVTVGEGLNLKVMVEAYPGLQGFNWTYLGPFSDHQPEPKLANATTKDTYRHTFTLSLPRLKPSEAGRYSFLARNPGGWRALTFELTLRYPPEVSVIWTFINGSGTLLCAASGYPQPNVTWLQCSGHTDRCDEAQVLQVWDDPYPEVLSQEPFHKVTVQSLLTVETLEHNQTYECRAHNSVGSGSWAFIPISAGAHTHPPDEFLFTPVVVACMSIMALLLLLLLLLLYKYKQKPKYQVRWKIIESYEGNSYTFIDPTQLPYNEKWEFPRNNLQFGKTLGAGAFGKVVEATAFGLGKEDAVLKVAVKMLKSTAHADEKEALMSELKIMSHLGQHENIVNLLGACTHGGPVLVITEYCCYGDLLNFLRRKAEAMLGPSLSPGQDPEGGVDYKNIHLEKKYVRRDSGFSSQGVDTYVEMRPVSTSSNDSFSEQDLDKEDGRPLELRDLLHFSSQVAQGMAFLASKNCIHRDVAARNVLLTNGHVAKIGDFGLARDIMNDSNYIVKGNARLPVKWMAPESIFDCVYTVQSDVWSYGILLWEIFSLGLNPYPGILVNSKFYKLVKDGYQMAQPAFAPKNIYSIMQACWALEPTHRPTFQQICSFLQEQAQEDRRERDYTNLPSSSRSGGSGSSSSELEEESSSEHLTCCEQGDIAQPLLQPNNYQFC
Sequence of various enzymes (Homo sapiens, UniProt Q9UBF8) (Q9UBF8 whole entry): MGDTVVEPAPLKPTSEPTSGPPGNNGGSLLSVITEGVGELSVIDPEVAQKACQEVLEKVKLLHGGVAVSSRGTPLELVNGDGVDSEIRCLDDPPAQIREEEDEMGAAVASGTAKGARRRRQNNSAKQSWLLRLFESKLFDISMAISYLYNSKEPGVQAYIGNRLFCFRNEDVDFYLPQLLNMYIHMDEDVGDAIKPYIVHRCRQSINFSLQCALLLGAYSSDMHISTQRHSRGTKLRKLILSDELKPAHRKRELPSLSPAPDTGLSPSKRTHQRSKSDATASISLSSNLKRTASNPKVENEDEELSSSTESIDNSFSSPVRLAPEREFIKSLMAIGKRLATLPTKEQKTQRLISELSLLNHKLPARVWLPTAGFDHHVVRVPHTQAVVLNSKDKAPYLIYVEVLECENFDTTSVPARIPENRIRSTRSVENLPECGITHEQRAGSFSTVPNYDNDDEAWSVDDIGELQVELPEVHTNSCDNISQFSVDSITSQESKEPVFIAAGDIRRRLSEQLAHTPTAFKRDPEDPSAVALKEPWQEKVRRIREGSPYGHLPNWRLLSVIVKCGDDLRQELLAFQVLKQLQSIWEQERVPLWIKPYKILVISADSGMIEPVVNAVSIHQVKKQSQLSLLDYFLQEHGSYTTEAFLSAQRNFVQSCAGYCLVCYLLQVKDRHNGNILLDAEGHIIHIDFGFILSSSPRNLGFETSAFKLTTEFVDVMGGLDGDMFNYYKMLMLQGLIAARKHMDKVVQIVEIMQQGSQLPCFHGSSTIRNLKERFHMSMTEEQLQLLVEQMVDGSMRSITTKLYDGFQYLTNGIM
Sequence of various enzymes (Homo sapiens, UniProt Q6XUX3) (Q6XUX3 whole entry): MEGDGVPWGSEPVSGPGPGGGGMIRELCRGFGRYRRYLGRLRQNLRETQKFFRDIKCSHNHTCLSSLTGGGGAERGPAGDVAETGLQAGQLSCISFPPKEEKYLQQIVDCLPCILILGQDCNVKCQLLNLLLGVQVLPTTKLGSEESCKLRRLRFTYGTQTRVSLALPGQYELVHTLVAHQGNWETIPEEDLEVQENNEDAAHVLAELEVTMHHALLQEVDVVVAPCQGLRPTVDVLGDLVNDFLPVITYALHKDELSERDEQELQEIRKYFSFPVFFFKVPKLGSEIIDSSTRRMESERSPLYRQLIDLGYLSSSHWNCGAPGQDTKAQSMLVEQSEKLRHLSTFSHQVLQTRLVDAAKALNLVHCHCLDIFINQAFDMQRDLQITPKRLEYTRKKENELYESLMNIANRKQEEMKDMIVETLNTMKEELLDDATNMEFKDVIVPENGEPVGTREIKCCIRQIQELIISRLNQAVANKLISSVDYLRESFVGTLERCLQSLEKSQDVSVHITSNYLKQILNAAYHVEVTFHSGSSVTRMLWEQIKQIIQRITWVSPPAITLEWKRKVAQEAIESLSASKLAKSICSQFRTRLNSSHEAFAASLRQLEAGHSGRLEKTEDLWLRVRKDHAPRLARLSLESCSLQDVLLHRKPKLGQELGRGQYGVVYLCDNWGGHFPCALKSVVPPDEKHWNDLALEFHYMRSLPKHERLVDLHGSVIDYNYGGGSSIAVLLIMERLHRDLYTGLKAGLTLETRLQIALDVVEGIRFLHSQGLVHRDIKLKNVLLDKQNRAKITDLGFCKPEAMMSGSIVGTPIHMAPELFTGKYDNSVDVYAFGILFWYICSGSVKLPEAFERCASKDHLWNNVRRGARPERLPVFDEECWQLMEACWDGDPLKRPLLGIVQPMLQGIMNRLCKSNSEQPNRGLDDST
Sequence of various enzymes (Homo sapiens, UniProt Q9UBE8) (Q9UBE8 whole entry): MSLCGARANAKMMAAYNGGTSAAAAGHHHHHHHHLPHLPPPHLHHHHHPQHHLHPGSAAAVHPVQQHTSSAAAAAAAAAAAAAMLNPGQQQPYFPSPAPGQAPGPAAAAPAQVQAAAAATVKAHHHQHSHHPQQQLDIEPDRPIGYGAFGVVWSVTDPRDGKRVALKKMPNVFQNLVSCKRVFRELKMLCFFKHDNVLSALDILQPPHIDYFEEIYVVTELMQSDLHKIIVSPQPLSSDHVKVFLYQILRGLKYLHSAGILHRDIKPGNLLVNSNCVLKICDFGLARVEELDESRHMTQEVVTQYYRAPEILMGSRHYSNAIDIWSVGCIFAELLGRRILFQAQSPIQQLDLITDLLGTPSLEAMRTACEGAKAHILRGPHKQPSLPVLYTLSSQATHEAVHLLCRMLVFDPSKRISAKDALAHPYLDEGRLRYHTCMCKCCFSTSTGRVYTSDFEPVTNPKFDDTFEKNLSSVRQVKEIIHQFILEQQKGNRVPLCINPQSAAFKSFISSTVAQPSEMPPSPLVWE
Sequence of various enzymes (Homo sapiens, UniProt O94804) (O94804 whole entry): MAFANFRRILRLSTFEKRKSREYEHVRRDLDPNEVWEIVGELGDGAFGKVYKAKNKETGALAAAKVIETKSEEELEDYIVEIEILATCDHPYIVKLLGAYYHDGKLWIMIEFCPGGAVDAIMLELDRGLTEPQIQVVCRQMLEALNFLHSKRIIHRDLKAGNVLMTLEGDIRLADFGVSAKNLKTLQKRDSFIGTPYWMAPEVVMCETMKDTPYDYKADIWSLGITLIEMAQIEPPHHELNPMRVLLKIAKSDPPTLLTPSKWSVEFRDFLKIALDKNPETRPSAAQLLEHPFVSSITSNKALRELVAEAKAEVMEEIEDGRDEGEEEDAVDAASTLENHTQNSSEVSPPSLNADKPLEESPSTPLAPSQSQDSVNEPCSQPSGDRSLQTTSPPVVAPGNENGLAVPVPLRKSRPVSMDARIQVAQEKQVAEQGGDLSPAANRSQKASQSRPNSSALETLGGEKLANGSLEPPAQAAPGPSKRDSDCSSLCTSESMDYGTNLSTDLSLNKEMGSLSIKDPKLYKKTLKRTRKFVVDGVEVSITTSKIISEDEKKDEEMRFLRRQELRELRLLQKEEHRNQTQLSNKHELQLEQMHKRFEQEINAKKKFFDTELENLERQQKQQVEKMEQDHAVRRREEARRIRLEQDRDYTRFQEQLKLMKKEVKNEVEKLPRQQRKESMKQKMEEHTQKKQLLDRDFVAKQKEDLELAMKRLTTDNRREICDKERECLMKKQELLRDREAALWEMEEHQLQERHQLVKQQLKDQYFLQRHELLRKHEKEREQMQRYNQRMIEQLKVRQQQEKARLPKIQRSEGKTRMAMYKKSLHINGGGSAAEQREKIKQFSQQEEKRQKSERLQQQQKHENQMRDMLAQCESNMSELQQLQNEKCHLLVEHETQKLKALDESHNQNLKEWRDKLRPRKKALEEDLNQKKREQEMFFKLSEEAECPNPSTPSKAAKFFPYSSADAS
Sequence of various enzymes (Homo sapiens, UniProt P22607, G697C) (P22607 23-806 G697C): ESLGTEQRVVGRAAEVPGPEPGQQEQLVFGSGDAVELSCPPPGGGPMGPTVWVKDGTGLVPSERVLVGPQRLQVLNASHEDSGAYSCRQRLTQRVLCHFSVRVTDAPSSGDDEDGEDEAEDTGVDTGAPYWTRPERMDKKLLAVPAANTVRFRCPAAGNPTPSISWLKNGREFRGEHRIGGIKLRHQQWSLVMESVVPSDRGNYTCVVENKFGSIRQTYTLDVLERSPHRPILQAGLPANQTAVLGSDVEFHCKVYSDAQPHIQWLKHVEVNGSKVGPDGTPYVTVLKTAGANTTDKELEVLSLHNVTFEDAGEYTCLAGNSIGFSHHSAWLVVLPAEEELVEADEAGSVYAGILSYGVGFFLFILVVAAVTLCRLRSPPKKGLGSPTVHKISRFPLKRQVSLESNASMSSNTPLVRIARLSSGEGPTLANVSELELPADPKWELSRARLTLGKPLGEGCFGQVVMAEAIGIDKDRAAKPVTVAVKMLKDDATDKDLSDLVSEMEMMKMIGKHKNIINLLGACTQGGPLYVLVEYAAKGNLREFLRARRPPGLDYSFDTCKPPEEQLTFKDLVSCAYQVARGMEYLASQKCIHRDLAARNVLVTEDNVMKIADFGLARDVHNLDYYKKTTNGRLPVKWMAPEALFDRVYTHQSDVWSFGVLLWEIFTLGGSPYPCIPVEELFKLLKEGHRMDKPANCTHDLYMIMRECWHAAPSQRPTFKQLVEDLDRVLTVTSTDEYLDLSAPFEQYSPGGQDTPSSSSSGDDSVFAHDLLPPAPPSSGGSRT

Structure (SMILES)	Ambit profiling: MUSK (various enzymes [1])	Ambit profiling: LOK (various enzymes [2])	Ambit profiling: INSR (various enzymes [3])	Ambit profiling: CSF1R (various enzymes [4])	Ambit profiling: CSF1R-autoinhibited (various enzymes [4])	Ambit profiling: LYN (various enzymes [5])	Ambit profiling: PKAC-beta (various enzymes [9])	Ambit profiling: CSK (various enzymes [11])	Ambit profiling: CLK2 (various enzymes [12])	Ambit profiling: PAK1 (various enzymes [13])	Ambit profiling: TRKC (various enzymes [14])	Ambit profiling: RIPK5 (various enzymes [15])	Ambit profiling: PKMYT1 (various enzymes [16])	Ambit profiling: LATS2 (various enzymes [17])	Ambit profiling: NLK (various enzymes [18])	Ambit profiling: PIK4CB (various enzymes [19])	Ambit profiling: STK39 (various enzymes [20])	Ambit profiling: ALK (various enzymes [21])	Ambit profiling: CDC2L2 (various enzymes [22])	also measured
CC(C)N1Cc2nn(C)cc2-c2cnc3[nH]cc(c3c2)-c2cn(nc2C(F)(F)F)CCCC1=O [Compound 45, (Z)-5-isopropyl-31-methyl-13-(trifluoromethyl)-11H,21H,31H-5-aza-2(3,5)-pyrrolo[2,3-b]pyridina-1(4,1),3(4,3)-dipyrazolacyclononaphan-6-one]	89	4.7	43	8.4	39	22	54	3.9	4.3	69	0.1	27	92	100	84	99	98	18	100	Ambit profiling: MET(Y1235D) (various enzymes [6]; compound 1 uM): 4.8; Ambit profiling: KIT(A829P) (various enzymes [7]; compound 1 uM): 14; Ambit profiling: FGFR3(G697C) (various enzymes [8]; compound 1 uM): 4.5; Ambit profiling: FLT3(ITD, F691L) (various enzymes [10]; compound 1 uM): 0
COc1c2c(nn1C)CN(C(C)C)C(=O)CCCn1cc(c(C(F)(F)F)n1)-c1c[nH]c3ncc-2cc13 [Compound 50, (Z)-5-isopropyl-35-methoxy-31-methyl-13-(trifluoromethyl)-11H,21H,31H-5-aza-2(3,5)-pyrrolo[2,3-b]pyridina-1(4,1),3(4,3)-dipyrazolacyclononaphan-6-one]	90	0.4	22	3.3	27	15	45	4.7	11	76	0	95	86	97	84	31	100	21	89	Ambit profiling: MET(Y1235D) (various enzymes [6]): 1.4; Ambit profiling: KIT(A829P) (various enzymes [7]): 19; Ambit profiling: FGFR3(G697C) (various enzymes [8]): 6.4; Ambit profiling: FLT3(ITD, F691L) (various enzymes [10]): 0
